This is an account of results in patent US20180344768A1, “NK CELL-BASED THERAPY” (Onkimmune Limited, priority 2016, published 2018).

For one test, the system named is MM1.S cells. The test can be described thus: Inhibition of KHYG-1 cell cytotoxicity by IL-6, flow cytometry. In kind it is cell-based. As to conditions: IL-6 100 ng/mL, E:T 1:1, 12 hr incubation. The protocol: (§1) KHYG-1, RPMI8226, MM1.S and K562 cells were cultured and maintained as described above. Cells were harvested in log phase, washed and re-suspended in pre-warmed appropriate mediums, before adjusting the cell concentration to 1 million/mL. The concentration of target cells was adjusted according to the E:T (effector: target) ratio. 0.5 mL KHYG-1 cells and 0.5 mL target cells were added to one well of a 24-well plate. IL-6 was added to the wells at final concentration of 100 ng/mL. The plates were then placed in a humidified 37° C./5% CO2 incubator for 12 hours (6 or 4 hours for K562 cells). The same mixture of KHYG-1 and target cells at time point 0 hr were used as a control.
(§2) Flow cytometry was used to measure the cytotoxicity of KHYG-1 cells. The co-cultured cells were collected (at different time points), washed and then stained with CD2-APC antibody (2.5 uL/test) first, then stained with AnnexinV-FITC (2.5 uL/test) and SYTOX-Green (0.5 uL/test) using AnnexinV binding buffer. Data were further analyzed using FlowJo 7.6.1 software. CD2-positive and CD2-negative gates were set which represent KHYG-1 cells and target cells, respectively. KHYG-1 cells were 100% positive for CD2, but K562, RPMI8226 and MM1.S cells were CD2-negative. Finally, the percentage of AnnexinV-FITC and SYTOX-Green positive cells (dead cells) in CD2-negative population was analyzed.
For orientation: In flow cytometry, cells or beads pass a laser one at a time.

A further test deals with RPMI8226 cells. The description is as above. It is filed as cell-based. As to conditions: RPMI8226, IL-6 100 ng/mL, E:T 1:1, 12 hr incubation. The protocol:
as §1, §2

A further test has as its system K562 cells. Described as above. It is filed as cell-based. As to conditions: K562, IL-6 100 ng/mL. The protocol: as §1, §2
The test system of test [1] is p-STAT3, p-SHP1, p-SHP2, p-P44/42. The test can be described thus: IL-6 / IL-2 signaling in KHYG-1 cells, gel electrophoresis. It is filed as cell-based, human. An excerpt: PE labeled mouse anti-human CD126 (IL-6 receptor alpha chain) (Catalog: 551850), PE labeled mouse anti-human CD130 (gp130, IL-6 receptor-associated signal transducer) (Catalog #:555757), PE-labeled Mouse IgG1 k isotype control (Catalog: 555749), APC-labeled mouse anti-human CD2 (Catalog: 560642), FITC-labeled mouse anti-human CD2 (Catalog: 555326), APC-labeled mouse anti-human PD-L1 (Catalog: 563741) and APC-labeled mouse anti-human PD-L2 (Catalog: 557926) were bought from BD Pharmingen. APC-labeled mouse anti-human PD1 antibody (Catalog: 329907) was bought from Biolegend. Phosphor-Stat3(Ser727) mouse mAb (Catalog:9136), Phosphor-Shp-1(Tyr564) rabbit mAb (Catalog; 8849), Phosphor-Shp-2(Tyr580) rabbit mAb (Catalog: 5431), Phospho-p44/42 MAPK (Erk1/2) (Thr202/Tyr204) rabbit mAb (Catalog: 4370) and p44/42 MAPK (Erk1/2) rabbit mAb were bought from Cell Signaling Technology. Phosphor-Stat3(Tyr705) mouse mAb (Catalog: sc-81523) and rabbit anti-human Stat3 polyclonal antibody (Catalog: sc-7179) were bought from Santa Cruz Biotechnology. Mouse anti-beta actin (Catalog: A5441) was bought from SIGMA-ALDRICH. Functional IL-6 blocking antibody (Catalog: 501110) and the related isotype control antibody (Catalog: 400414) were bought from Biolegend.
KHYG-1 cells were cultivated and maintained as mentioned above.

Test [2] has as its system NKG2D (activating receptor). The test can be described thus: Receptor expression on KHYG-1 cells after IL-6 stimulation. It is filed as cell-based, human. The note with it: 50 ng/mL IL-6 in the presence of IL-2, 24 hours. An excerpt:
(§3) Negative control means FMO. APC anti-human NKG2D Antibody (catalog number #320807) was bought from Biolegend. APC anti-human NKG2A Antibody (catalog number FAB1059A) was bought from R&D systems.

Test [3] relates to NKG2A (inhibitory receptor). The test is described as above. It is filed as cell-based, human. The note with it: 50 ng/mL IL-6 in the presence of IL-2, 24 hours.
Text: as §3

For another test, the system named is PD-L1. The test can be described thus: Checkpoint ligand expression on MM cells treated with IL-6. In kind it is cell-based, human. The note with it: 100 ng/mL IL-6, 48 hours. The protocol: (§4) MM cells in log phase were seeded at 0.5 million/mL in RPMI1640 medium containing 10% FBS. A final concentration of 100 ng/mL IL-6 or same volume of vehicle (PBS) was used to treat MM cells for 48 hours. Then MM cells were harvested, washed, and stained with PD-L1 and PD-L2 antibodies (2.5 uL/test). Flow cytometric data were acquired using a FACS Canto II, and the results were further analyzed by […] 8.0.1 software.

The next test relates to PD-L2. The description is as above. In kind it is cell-based, human. The note with it: 100 ng/mL IL-6, 48 hours. On the procedure: as §4
Where [4] appears, read: KHYG-1 cells starved of IL-2 for 6 hours, cytokine alone (IL-2 10 ng/mL or IL-6 100 ng/mL).
The mark [5] stands for this setting: KHYG-1 cells, IL-6 in the presence of IL-2.

Turning to “IL-6: Recombinant Human IL-6 (Catalog: 200-06) from PEPROTECH”, the “percentage of dead target cells co-cultured with KHYG-1 cells” value is “decreased” in the test on MM1.S cells; “decreased” in the test on RPMI8226 cells; “decreased” with K562 cells (E:T 1:1, 4 hr incubation); “decreased” with K562 cells (E:T 1:1, 6 hr incubation). For the same substance, the p-P44/42 result in test [1] (setting [4]) is listed as “decreased expression”. Further, the p-SHP1 result in test [1] (setting [4]) is listed as “activated”. The p-SHP2 result in test [1] (setting [4]) was “activated”. Moreover, the p-STAT3 result in test [1] (setting [4]) is on record as “activated”. In addition, the p-P44/42 expression result in test [1] (setting [5]) is recorded as “decreasing”. Further, in test [1] (setting [5]), the p-SHP1 expression result is “increasing”. Besides, the p-SHP2 expression result in test [1] (setting [5]) was “increasing”. Moreover, the NKG2D expression levels result in test [2] is “decreasing expression levels”. In addition, the NKG2A expression entry in test [3] is “increasing expression”. The PD-L1 expression result in the test with PD-L1 (MM1.S cells), with PD-L1 (NCI-H929 cells), with PD-L1 (RPMI8226 cells) and in the test on PD-L1 (U266 cells) was “upregulation” in each case. For the same substance, the PD-L2 expression result in the test with PD-L2 (MM1.S cells), in the test on PD-L2 (NCI-H929 cells), in the test on PD-L2 (RPMI8226 cells) and with PD-L2 (U266 cells) was “upregulation” in each case.
